# Measurements reported in the supplement of paper PMC11208160.
# Experiment: recombinant UMI read abundance after kanamycin selection (control-corrected) (log10(CPM+1)); higher = more efficient recombination; extreme values may be limits of the assay; sequences stand for … in AGTGCAGAGAAAATCGGCCAGTTTTCTCTGCCTGCAGTCCGCATGCCGTGGGACCCCTTGGGTTCTAACCTGTTGCCTAGATTTATGCAGCGGACTGCCTTTCTCCCAAAGTGATAAACCGG…AGGTTGGTTTCACT; site = the 11-nt donor
# Summary of the method: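 Sequenced counts of recombinant UMIs were turned into CPM, averaged across replicates and scaled with control-derived factors. The reported figure is log10(CPM+1). Those UMIs, each 12 nt long, tagged donor and donor-binding-loop pairs on a plasmid with a promoterless kanamycin gene, screened as a pool in Escherichia coli with IPTG (0.07 mM) plus kanamycin or without selection.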
# 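Note: IS621 bridge recombinase in Escherichia coli cells against a fixed T5 target plasmid.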
row,Sequence,recombinant UMI read abundance (log10)
1,ACAGTATCATGGACCGGTTTTCCCGGTAATCCGTATTTGCA (site ACCGTATCTTC),0.00762
2,TAAGCAGCATGGACCGGTTTTCCCGGTAATCCGTATTTGCT (site TAAGCAGCTAG),2.32
3,GCCACACCATGGACCGGTTTTCCCGGTAATCCGTATTTGTA (site GCCACGCCTTA),0.00626
4,TGATAATCATGGACCGGTTTTCCCGGTAATCCGTATTTGCT (site CGATCATCTAG),0
5,TATTATCCATGGACCGGTTTTCCCGGTAATCCGTATTTGCT (site CATTATCCTAG),0
6,AGGTTCCCATGGACCGGTTTTCCCGGTAATCCGTATTTGTG (site AGTTTCCCTCA),0.0518
7,ACAGTGTCATGGACCGGTTTTCCCGGTAATCCGTATTTGCA (site ACAGTGTCTTG),3.29
8,CGGTAGTCATGGACCGGTTTTCCCGGTAATCCGTATTTGCC (site CGGAAGTCTGG),0.759
9,ACCTCGACATGGACCGGTTTTCCCGGTAATCCGTATTTGGG (site ACCTCGACTCC),0.00574
10,CCCTTCTCATGGACCGGTTTTCCCGGTAATCCGTATTTGGG (site CCCTTCCCTCC),0.00574
11,AACGGCCCATGGACCGGTTTTCCCGGTAATCCGTATTTGTT (site CACGGCCCTAA),0.071
12,TTCGCTGCATGGACCGGTTTTCCCGGTAATCCGTATTTGTG (site TTTGCTGCTCA),0.00847
13,CCCTTAGCATGGACCGGTTTTCCCGGTAATCCGTATTTGTG (site CCATTAGCTCA),0.0224
14,AATGTGTCATGGACCGGTTTTCCCGGTAATCCGTATTTGAC (site GATGTGTCTGT),0
15,TCCACCGCATGGACCGGTTTTCCCGGTAATCCGTATTTGAG (site TCCACCGCTCA),0.0207
16,ACCTTCGCATGGACCGGTTTTCCCGGTAATCCGTATTTGGC (site ACCTTCGCTGC),1.56
17,CCCTAGGCATGGACCGGTTTTCCCGGTAATCCGTATTTGCC (site CCCTAGCCTGG),0
18,AGCCCAGCATGGACCGGTTTTCCCGGTAATCCGTATTTGTT (site AGCCAAGCTAA),0.0134
19,CCTGATACATGGACCGGTTTTCCCGGTAATCCGTATTTGGC (site CCTTATACTGC),0
20,CCCTTCTCATGGACCGGTTTTCCCGGTAATCCGTATTTGGG (site CCCGTCTCTCC),0.00385
21,GATTGGACATGGACCGGTTTTCCCGGTAATCCGTATTTGAC (site GACTGGACTGT),0
22,TGCTAGCCATGGACCGGTTTTCCCGGTAATCCGTATTTGGT (site TGCTAGCCTAC),0.0034
23,GATTCGACATGGACCGGTTTTCCCGGTAATCCGTATTTGAC (site GATTTGACTGT),0
24,CTGCTACCATGGACCGGTTTTCCCGGTAATCCGTATTTGTT (site CTGCTACCTAA),0.0134
25,GTAGTATCATGGACCGGTTTTCCCGGTAATCCGTATTTGAC (site GTAGTATCTGT),3.41

row,Sequence,recombinant UMI read abundance (log10)
1,TGGCCGTCATGGACCGGTTTTCCCGGTAATCCGTATTTGGC (site TGGCCGACTGC),0
2,GCATAGACATGGACCGGTTTTCCCGGTAATCCGTATTTGCC (site GTATAGACTGG),0
3,TCGTACTCATGGACCGGTTTTCCCGGTAATCCGTATTTGCA (site TCGTACTCTTG),2.38
4,CGGAAACCATGGACCGGTTTTCCCGGTAATCCGTATTTGTA (site CGGAATCCTAA),0
5,GTTCGAGCATGGACCGGTTTTCCCGGTAATCCGTATTTGCA (site CTTCGAGCTTG),0.898
6,CGATAGACATGGACCGGTTTTCCCGGTAATCCGTATTTGAG (site CGCTAGACTCT),0.00552
7,ACAGTATCATGGACCGGTTTTCCCGGTAATCCGTATTTGCA (site ACAGAAACTTG),0
8,ATTTGAGCATGGACCGGTTTTCCCGGTAATCCGTATTTGCG (site ATTTGAGCTCG),0.336
9,TGATAATCATGGACCGGTTTTCCCGGTAATCCGTATTTGCT (site TGATAATCTAG),2.45
10,ACCTAGACATGGACCGGTTTTCCCGGTAATCCGTATTTGGG (site ACCTATACTCC),0.333
11,AGGAGATCATGGACCGGTTTTCCCGGTAATCCGTATTTGGG (site AGGAGATCTCC),0.505
12,CAGCACGCATGGACCGGTTTTCCCGGTAATCCGTATTTGGT (site CAGCACGCTAC),1.61
13,ATGCACGCATGGACCGGTTTTCCCGGTAATCCGTATTTGGG (site ATGCACGCTCC),0.239
14,TATTGGACATGGACCGGTTTTCCCGGTAATCCGTATTTGAC (site CATTGGACTGT),0.701
15,GAGCTCCCATGGACCGGTTTTCCCGGTAATCCGTATTTGAT (site GAGCTCACTAT),0.00938
16,GAGCTAGCATGGACCGGTTTTCCCGGTAATCCGTATTTGAA (site GAGCTAGCTTT),2.14
17,AGGACGGCATGGACCGGTTTTCCCGGTAATCCGTATTTGAA (site AGGACGGCTTT),1.73
18,CTAGGTGCATGGACCGGTTTTCCCGGTAATCCGTATTTGAT (site CGAGGTGCTAT),0.0806
19,GAAGCTTCATGGACCGGTTTTCCCGGTAATCCGTATTTGTT (site GAAGCTTCTAA),1.74
20,TTAAGTCCATGGACCGGTTTTCCCGGTAATCCGTATTTGTA (site TCAAGTCCTTA),0.361
21,CAATTCCCATGGACCGGTTTTCCCGGTAATCCGTATTTGCC (site CAATTCCCTGG),0
22,TCTATAACATGGACCGGTTTTCCCGGTAATCCGTATTTGGG (site TCTATAACTCC),0.0262
23,AGGTGGTCATGGACCGGTTTTCCCGGTAATCCGTATTTGCA (site AGGTGGTCTTG),2.62
24,GACTTGGCATGGACCGGTTTTCCCGGTAATCCGTATTTGGA (site TACTTGGCTTC),0.28
25,CCCCAAACATGGACCGGTTTTCCCGGTAATCCGTATTTGTA (site CCCCAAACTTA),0.19

row,Sequence,recombinant UMI read abundance (log10)
1,AGAGAAGCATGGACCGGTTTTCCCGGTAATCCGTATTTGCG (site AGAGAAGCTCG),3.09
2,TGTACAGCATGGACCGGTTTTCCCGGTAATCCGTATTTGAC (site TGTACACCTGT),0
3,CGAGTATCATGGACCGGTTTTCCCGGTAATCCGTATTTGCT (site CGATCATCTAG),0
4,ACACATGCATGGACCGGTTTTCCCGGTAATCCGTATTTGAC (site ACACATTCTGT),0.598
5,TAAAGTACATGGACCGGTTTTCCCGGTAATCCGTATTTGTA (site TAAAGTTCTTA),0
6,TGCCATGCATGGACCGGTTTTCCCGGTAATCCGTATTTGGA (site TGCCATGCTTC),0.294
7,CTGACTCCATGGACCGGTTTTCCCGGTAATCCGTATTTGGG (site CTGACTCCTCC),0.44
8,GATTGGACATGGACCGGTTTTCCCGGTAATCCGTATTTGAC (site GATTGGTCTGT),0
9,GGTGTTCCATGGACCGGTTTTCCCGGTAATCCGTATTTGTT (site GGTGTTCCTAA),0.00351
10,GTTAGTACATGGACCGGTTTTCCCGGTAATCCGTATTTGGC (site GTTAGGACTGC),0
11,TGTACAACATGGACCGGTTTTCCCGGTAATCCGTATTTGAC (site TGTACACCTGT),0
12,GGAGCGGCATGGACCGGTTTTCCCGGTAATCCGTATTTGGT (site GGAGGGGCTAC),0.00705
13,GTTCGAGCATGGACCGGTTTTCCCGGTAATCCGTATTTGCA (site GTTCGAACTTG),0.806
14,GCGTGCCCATGGACCGGTTTTCCCGGTAATCCGTATTTGAT (site GCCTGCCCTAT),0.0179
15,GCACGTTCATGGACCGGTTTTCCCGGTAATCCGTATTTGGC (site GCACGTTCTGC),2.74
16,AGTCTTTCATGGACCGGTTTTCCCGGTAATCCGTATTTGAC (site AGGCTTTCTGT),0
17,GCTAGAACATGGACCGGTTTTCCCGGTAATCCGTATTTGAG (site GCTAGAACTCT),1.83
18,CAAGTCACATGGACCGGTTTTCCCGGTAATCCGTATTTGCG (site CAAGTCACTCT),1.63
19,GGCCACACATGGACCGGTTTTCCCGGTAATCCGTATTTGTT (site GGCCACGCTAA),0.0159
20,TTTAGAACATGGACCGGTTTTCCCGGTAATCCGTATTTGGC (site CTTAGAACTGC),0
21,CCTAATACATGGACCGGTTTTCCCGGTAATCCGTATTTGAC (site CCTAATACTGT),0
22,TACCTGACATGGACCGGTTTTCCCGGTAATCCGTATTTGTG (site TACCTGACTCA),0.0209
23,CACGCTCCATGGACCGGTTTTCCCGGTAATCCGTATTTGTC (site CACGCTCCTGA),2.39
24,TACTTCGCATGGACCGGTTTTCCCGGTAATCCGTATTTGAT (site TACTTCGCTAT),0.583
25,GTTGTTACATGGACCGGTTTTCCCGGTAATCCGTATTTGCA (site GTTGTTACTTG),2.25
